Measured values from patent publication US10869904B2, “Pharmaceutical composition for preventing or treating respiratory disease comprising extract of Justicia procumbens L” (DONG WHA PHARM. CO., LTD., priority 2016, dated 2020).
Where two headings read alike, the source gives them in different places. Marks after values point to notes of the source that are not given here.

What was measured:
IL5 = assay: Inhibition of IL5 secretion by Concanavalin A-treated splenocytes (ELISA); format: cell-based, Balb/c mice; conditions: for inhibition of IL5 secretion (in words): text on Tables 7 and 8
Protocol: (§1) The isolated splenocytes were diluted in RPMI medium (containing 10% fetal bovine serum (FBS) and antibiotics (100 U/mL penicillin and 100 μg/mL streptomycin)) at a concentration of 5×10^6 cells/nit, and the cell dilution was dispended in a 24-well plate in an amount of 500 μl/well and in a 96-well plate in an amount of 100 μl/well. The plates were incubated in a 5% CO2 incubator at 37° C. for 48 hours. […] The medium of the 24-well plate was used to measure the degree of secretion of Th2 inflammatory cytokines (IL4 and IL5), and the 96-well plate was used to measure the degree of cell proliferation. First, in order to measure Th2 cytokines, the medium in the 24-well plate was collected and centrifuged at 800×g for 5 minutes, and the supernatant was collected. 100 μl of the supernatant per well was used in IL4 or IL5 enzyme-linked immunosorbent assay (ELISA, Komabiotech Inc.) to measure the degree of secretion of these cytokines. In order to measure the degree of cell proliferation, […] of CCK8 (cell counting kit 8, Donjindo) solution was added to each well of the 96-well plate, and after 4 hours, the absorbance value was measured. The degree of inhibition of spleen cell proliferation by each drug and the degree of inhibition of Th2 cytokine secretion by each drug were calculated using Equation 2 below. For drug synergistic effects, a linear equation was constructed using the concentrations of drugs administered alone as x-coordinates and using drug concentration-dependent inhibition as y-coordinates. Using this linear equation, the concentrations of drugs administered alone, which correspond to inhibition achieved when administered in combination, were calculated, and combination index (CI) was calculated using Equation 3 below. A CI value of less than 1 indicates a synergistic effect, a CI value of 1 indicates an additive effect, and a CI value of more than 1 indicates an antagonistic effect (Liang Zhao et. al., Clinical Cancer Research, 10, 7994-8004, 2004). […]

splenocytes = assay: Inhibition of Concanavalin A-induced splenocyte proliferation (CCK8); format: cell-based, Balb/c mice; conditions: for inhibition of splenocyte proliferation (in words): Tables 4 to 6
Protocol: as §1

IL4 = assay: Inhibition of IL4 secretion by Concanavalin A-treated splenocytes (ELISA); format: cell-based, Balb/c mice; conditions: for inhibition of IL4 secretion (in words): text on Tables 7 and 8
Protocol: as §1

[1] = system: Neutrophilic Asthma Balb/c Mouse Models; assay: Asthma inhibitory effect in neutrophilic asthma model (ovalbumin + LPS): lung lavage fluid and lung tissue; format: in vivo, Balb/c mice; conditions: oral
Protocol: On 0 and 7 days after 1 week of acclimation, each of the mice was systematically sensitized by intranasally administering 75 μg of ovalbumin and 10 μg of lipopolysaccharide (LPS). 20, 50 or 100 mg/kg of the Justicia procumbens L. prepared in Preparation Example 3 or a positive control (10 mg/kg of dexamethasone and 1 mg/kg of montelukast) was administered orally to the mice On days 14, 15, 21, 22, 28, 29, 35, 36 and 37. One hour after administration, 50 μg of ovalbumin was administered intranasally to the mice. 24 hours after final sensitization (day 37), lung lavage fluid was obtained through tracheostomy, and the lung tissue was isolated. The collected lung lavage fluid was centrifuged at 3000 rpm […], and the supernatant was used to measure physiologically active substances (IL-4, IL-5, and IFN-γ), and the pellets were used to measure the number of inflammatory cells. The physiologically active substances (interleukin-4 (IL-4), interleukin-5 (IL-5), and interferon-gamma (IFN-γ)) in the isolated lung lavage fluid were measured using an enzyme-linked immunosorbent assay (ELISA, IL-4: Komabiotech #K0331144, IL-5: R&D system #M5000, IFN-γ: Komabiotech #K0331138) corresponding to each substance. In addition, the lung lavage fluid pellets were re-dissolved in 0.5 mL of phosphate buffered saline, and 0.1 mL of the solution was added to each well of a 96-well plate and centrifuged at 800 rpm for 5 minutes to attach the cells to the bottom (3 wells per sample). Then, each sample was stained with Diff Quik staining solution (Sysmex), and photographed with a microscope at 2-6 random sites. About 200 cells per sample were counted and the percentage (%) of inflammatory cells of each sample was calculated. The total number of inflammatory cells was measured with a microscope using a hematocytometer, and the number of eosinophils and the number of neutrophils were calculated using the percentage (%) of inflammatory cells of each sample. Staining of the lung tissue was performed in the same manner as described in Example 5 above. Statistical processing was performed using an SPSS program, and a Levene test was performed for a test for equal variance, and significance was tested by one-way analysis (ANOVA).

[2] = Table 8, Concentration (mM) 0.25
[3] = Table 8, Concentration (mM) 0.5
[4] = Mus musculus, Splenocyte, Table 5, 0.5 μM, read-out: Inhibition of splenocyte proliferation (%, n = 3, Mean ± SD)
[5] = Table 8, Concentration (mM) 0.2

| Compound | Inhibition of IL5 secretion (%, n = 2, Mean ± SD) (IL5; Table 7, 1 μM) [%] | Inhibition of IL5 secretion (%, n = 2, Mean ± SD) (IL5; Table 7, 5 μM) [%] | Inhibition of IL5 secretion (%, n = 2, Mean ± SD) (IL5; Table 8, Concentration (mM) 1) [%] | Inhibition of IL5 secretion (%, n = 2, Mean ± SD) (IL5; Table 8, Concentration (mM) 5) [%] | inhibition of IL5 secretion (in words) (IL5) | Inhibition of splenocyte proliferation (%, n = 3, Mean ± SD) (splenocytes; Table 5, 0.5 μM) [%] | Inhibition of splenocyte proliferation (%, n = 3, Mean ± SD) (splenocytes; Table 5, 5 μM) [%] | Inhibition of splenocyte proliferation (%, n = 3, Mean ± SD) (splenocytes; Table 6, 1 μM) [%] | Inhibition of splenocyte proliferation (%, n = 3, Mean ± SD) (splenocytes; Table 6, 5 μM) [%] | inhibition of splenocyte proliferation (in words) (splenocytes) | Inhibition of IL4 secretion (%, n = 2, Mean ± SD) (IL4; Table 7, 1 μM) [%] | Inhibition of IL4 secretion (%, n = 2, Mean ± SD) (IL4; Table 7, 5 μM) [%] | Inhibition of IL4 secretion (%, n = 2, Mean ± SD) (IL4; Table 8, Concentration (mM) 1) [%] | Inhibition of IL4 secretion (%, n = 2, Mean ± SD) (IL4; Table 8, Concentration (mM) 5) [%] | inhibition of IL4 secretion (in words) (IL4) | inhibition at 0.5 µM (splenocytes; [4]) [%] | other results |
| --- | --- | --- | --- | --- | --- | --- | --- | --- | --- | --- | --- | --- | --- | --- | --- | --- | --- |
| COc1cc2c(OC)c3c(c(-c4ccc5c(c4)OCO5)c2cc1OC)COC3=O [Justicidin C, justicidin C] | 39.8 ± 0.03 | 36.4 ± 0.02 | 16.9 ± 0.06 | 26.2 ± 0.00 | inhibited the secretion of IL4 and IL5 | −3.6 ± 4.00 | 8.4 ± 3.20 | 6.7 ± 15.08 | 31.7 ± 12.81 | exhibited the effect of inhibiting splenocyte proliferation | −14.1 ± 0.05 | 26.1 ± 0.04 | 25.3 ± 0.15 | 51.7 ± 0.02 | inhibited the secretion of IL4 and IL5 | – | – |
| COc1cc2cc3c(c(-c4ccc5c(c4)OCO5)c2cc1OC)C(=O)OC3 [Justicidin B, justicidin B] | 84.4 ± 0.00 | – | – | – | inhibited the secretion of IL4 and IL5 | 64.3 ± 0.50 | – | – | – | high inhibitory activities | 78.2 ± 0.01 | – | – | – | inhibited the secretion of IL4 and IL5 | – | Inhibition of IL5 secretion (%, n = 2, Mean ± SD) (IL5; Table 7, 0.5 μM): 55.8 ± 0.01%; Inhibition of IL5 secretion (%, n = 2, Mean ± SD) (IL5; [2]): 41.9 ± 0.04%; Inhibition of IL5 secretion (%, n = 2, Mean ± SD) (IL5; [3]): 66.8 ± 0.10%; Inhibition of splenocyte proliferation (%, n = 3, Mean ± SD) (splenocytes; Table 5, 0.25 μM): 14.2 ± 1.43%; Inhibition of splenocyte proliferation (%, n = 3, Mean ± SD) (splenocytes; Table 6, 0.25 μM): 72.5 ± 2.66%; Inhibition of splenocyte proliferation (%, n = 3, Mean ± SD) (splenocytes; Table 6, 0.5 μM): 90.8 ± 0.94%; Inhibition of IL4 secretion (%, n = 2, Mean ± SD) (IL4; Table 7, 0.5 μM): 35.9 ± 0.01%; Inhibition of IL4 secretion (%, n = 2, Mean ± SD) (IL4; [2]): 81.6 ± 0.02%; Inhibition of IL4 secretion (%, n = 2, Mean ± SD) (IL4; [3]): 87.6 ± 0.02% |
| COc1cc2c(OC)c3c(c(-c4ccc5c(c4)OCO5)c2cc1OC)C(=O)OC3 [Justicidin A, justicidin A] | 25.4 ± 0.01 | 56.7 ± 0.00 | 11.7 ± 0.27 | 25.7 ± 0.08 | inhibited the secretion of IL4 and IL5 | −2.7 ± 1.84 | 85.0 ± 2.43 | 43.4 ± 1.63 | 99.0 ± 2.35 | high inhibitory activities | −10.6 ± 0.08 | 54.7 ± 0.02 | 71.6 ± 0.02 | 86.4 ± 0.04 | inhibited the secretion of IL4 and IL5 | – | Inhibition of splenocyte proliferation (%, n = 3, Mean ± SD) (splenocytes; Table 5, 1 μM): 9.4 ± 4.36%; Inhibition of splenocyte proliferation (%, n = 3, Mean ± SD) (splenocytes; Table 5, 2.5 μM): 56.4 ± 18.80% |
| CC(C)(O)c1ccccc1CC[C@@H](SCC1(CC(=O)O)CC1)c1cccc(/C=C/c2ccc3ccc(Cl)cc3n2)c1 [Montelukast, montelukast] | – | – | – | – | – | – | – | – | – | – | – | – | – | – | – | 40.2 ± 2.64 | inhibition at 10 µM (IL5; Mus musculus, Splenocyte, Table 7, 10 μM, read-out: Inhibition of IL5 secretion (%, n = 2, Mean ± SD)): 70.2 ± 0.01%; inhibition at 10 µM (splenocytes; Mus musculus, Splenocyte, Table 4, 10 μM, read-out: Inhibition of splenocyte proliferation (n = 3, Mean ± SD)): 44.1 ± 4.34%; Epithelium thickness (μm), n = 5, Mean ± S.E. ([1]; 10 mg/kg): 25.5 ± 1.64 μm; Lung lavage fluid_IFN-γ (pg/mL), n = 5, Mean ± S.E. ([1]; 10 mg/kg): 32.2 ± 2.13## pg/mL; Lung lavage fluid_IL-4 (pg/mL), n = 5, Mean ± S.E. ([1]; 10 mg/kg): 96.9 ± 14.40## pg/mL; Lung lavage fluid_IL-5 (pg/mL), n = 5, Mean ± S.E. ([1]; 10 mg/kg): 194.4 ± 23.1## pg/mL; Lung lavage fluid_eosinophil number (×10^5), n = 5, Mean ± S.E. ([1]; 10 mg/kg): 0.7 ± 0.05## ×10^5; Lung lavage fluid_neutrophil number (×10^5), n = 5, Mean ± S.E. ([1]; 10 mg/kg): 1.5 ± 0.07## ×10^5; Lung lavage fluid_total inflammatory cell number (×10^5), n = 5, Mean ± S.E. ([1]; 10 mg/kg): 4.0 ± 0.25## ×10^5; Subepithelial smooth muscle thickness (μm), n = 5, Mean ± S.E. ([1]; 10 mg/kg): 10.7 ± 0.59 μm; inhibition at 10 µM (IL4; Mus musculus, Splenocyte, Table 7, 10 μM, read-out: Inhibition of IL4 secretion (%, n = 2, Mean ± SD)): -42.6 ± 0.08% |
| phyllamyricin C | 22.9 ± 0.01 | 67.9 ± 0.01 | 0.5 ± 0.05 | 31.6 ± 0.08 | inhibited the secretion of IL4 and IL5 | 0.9 ± 2.86 | 18.8 ± 2.82 | 19.0 ± 18.44 | 25.0 ± 11.37 | exhibited the effect of inhibiting splenocyte proliferation | 9.8 ± 0.05 | 14.4 ± 0.01 | 11.8 ± 0.01 | 51.5 ± 0.11 | inhibited the secretion of IL4 and IL5 | – | – |
| C[C@@H]1C[C@H]2[C@@H]3CCC4=CC(=O)C=C[C@]4(C)[C@@]3(F)[C@@H](O)C[C@]2(C)[C@@]1(O)C(=O)CO [Dexamethasone, dexamethasone] | – | – | – | – | – | – | – | – | – | – | – | – | – | – | – | 118.7 ± 0.21 | inhibition at 0.5 µM (IL5; Mus musculus, Splenocyte, Table 7, 0.5 μM, read-out: Inhibition of IL5 secretion (%, n = 2, Mean ± SD)): 103%; Inhibition of IL5 secretion (%, n = 2, Mean ± SD) (IL5; [5]): 98.9 ± 0.01%; inhibition at 0.5 µM (splenocytes; Mus musculus, Splenocyte, Table 4, 0.5 μM, read-out: Inhibition of splenocyte proliferation (n = 3, Mean ± SD)): 110.3 ± 0.62%; inhibition at 0.2 µM (splenocytes; Mus musculus, Splenocyte, Table 6, 0.2 μM, read-out: Inhibition of splenocyte proliferation (%, n = 3, Mean ± SD)): 94.1 ± 1.8%; Epithelium thickness (μm), n = 5, Mean ± S.E. ([1]; 1 mg/kg): 5.0 ± 0.38##, $$ μm; Lung lavage fluid_IFN-γ (pg/mL), n = 5, Mean ± S.E. ([1]; 1 mg/kg): 1.3 ± 0.61##, $$ pg/mL; Lung lavage fluid_IL-4 (pg/mL), n = 5, Mean ± S.E. ([1]; 1 mg/kg): 32.1 ± 9.51## pg/mL; Lung lavage fluid_IL-5 (pg/mL), n = 5, Mean ± S.E. ([1]; 1 mg/kg): 53.0 ± 13.59##, $$ pg/mL; Lung lavage fluid_eosinophil number (×10^5), n = 5, Mean ± S.E. ([1]; 1 mg/kg): 0.1 ± 0.01## ×10^5; Lung lavage fluid_neutrophil number (×10^5), n = 5, Mean ± S.E. ([1]; 1 mg/kg): 0.2 ± 0.02## ×10^5; Lung lavage fluid_total inflammatory cell number (×10^5), n = 5, Mean ± S.E. ([1]; 1 mg/kg): 1.3 ± 0.07## ×10^5; Subepithelial smooth muscle thickness (μm), n = 5, Mean ± S.E. ([1]; 1 mg/kg): 2.7 ± 0.35 μm; inhibition at 0.5 µM (IL4; Mus musculus, Splenocyte, Table 7, 0.5 μM, read-out: Inhibition of IL4 secretion (%, n = 2, Mean ± SD)): 100%; Inhibition of IL4 secretion (%, n = 2, Mean ± SD) (IL4; [5]): 97.8 ± 0.00% |
